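Step 1: Grow cells in 96-well plates. Step 2: Expose to compound for 48 hours at 5 concentrations. Step 3: Interpolate endpoints linearly; if unreached, use highest concentration. Definition used: TGI = concentration required for complete inhibition of growth.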
Key:
Experiment in all cases: DTP human tumour cell line panel, 48 h
RPMI-8226 leukemia = test system: RPMI-8226 leukemia
IGROV1 ovarian = test system: IGROV1 ovarian
PC-3 prostate = test system: PC-3 prostate
UO-31 renal = test system: UO-31 renal
NCI-H226 lung = test system: NCI-H226 lung
HCT-116 colon = test system: HCT-116 colon
MOLT-4 leukemia = test system: MOLT-4 leukemia
ACHN renal = test system: ACHN renal
M14 melanoma = test system: M14 melanoma
MDA-MB-231 breast = test system: MDA-MB-231 breast
CCRF-CEM leukemia = test system: CCRF-CEM leukemia
CAKI-1 renal = test system: CAKI-1 renal
SW-620 colon = test system: SW-620 colon
SK-MEL-28 melanoma = test system: SK-MEL-28 melanoma
SK-MEL-2 melanoma = test system: SK-MEL-2 melanoma
HS 578T breast = test system: HS 578T breast
SK-MEL-5 melanoma = test system: SK-MEL-5 melanoma
MDA-MB-435 = test system: MDA-MB-435
OVCAR-8 ovarian = test system: OVCAR-8 ovarian
SNB-19 CNS = test system: SNB-19 CNS
MALME-3M melanoma = test system: MALME-3M melanoma
BT-549 breast = test system: BT-549 breast
MCF7 breast = test system: MCF7 breast
OVCAR-4 ovarian = test system: OVCAR-4 ovarian
K-562 leukemia = test system: K-562 leukemia
TK-10 renal = test system: TK-10 renal
OVCAR-5 ovarian = test system: OVCAR-5 ovarian
HL-60(TB) leukemia = test system: HL-60(TB) leukemia
A549 NSCLC = test system: A549 NSCLC
T-47D breast = test system: T-47D breast
786-0 renal = test system: 786-0 renal
SF-268 CNS = test system: SF-268 CNS
SK-OV-3 ovarian = test system: SK-OV-3 ovarian
MDA-N = test system: MDA-N
HT29 colon = test system: HT29 colon
COLO 205 colon = test system: COLO 205 colon
EKVX NSCLC = test system: EKVX NSCLC
SF-295 CNS = test system: SF-295 CNS
NCI/ADR-RES ovarian = test system: NCI/ADR-RES ovarian
NCI-H460 lung = test system: NCI-H460 lung
U251 CNS = test system: U251 CNS
HOP-62 NSCLC = test system: HOP-62 NSCLC
NCI-H522 lung = test system: NCI-H522 lung
A498 renal = test system: A498 renal
UACC-257 melanoma = test system: UACC-257 melanoma
LOX IMVI melanoma = test system: LOX IMVI melanoma
DU-145 prostate = test system: DU-145 prostate
UACC-62 melanoma = test system: UACC-62 melanoma
HOP-92 NSCLC = test system: HOP-92 NSCLC
HCC-2998 colon = test system: HCC-2998 colon
HCT-15 colon = test system: HCT-15 colon
SN12C renal = test system: SN12C renal
KM12 colon = test system: KM12 colon
NCI-H23 lung = test system: NCI-H23 lung
RXF 393 renal = test system: RXF 393 renal
SF-539 CNS = test system: SF-539 CNS
SR leukemia = test system: SR leukemia
OVCAR-3 ovarian = test system: OVCAR-3 ovarian
SNB-75 CNS = test system: SNB-75 CNS

`COC(=O)c1c(C#N)c(N)nc2c1CCC2` was tested, and the TGI (RPMI-8226 leukemia) was > 100 µM, the TGI (IGROV1 ovarian) was > 100 µM and the TGI (PC-3 prostate) was > 100 µM. For the same compound, the TGI (UO-31 renal) was > 100 µM, the TGI (NCI-H226 lung) was > 100 µM and the TGI (HCT-116 colon) was > 100 µM. The TGI (MOLT-4 leukemia) was > 100 µM, the TGI (ACHN renal) was > 100 µM and the TGI (M14 melanoma) was > 100 µM. The TGI (MDA-MB-231 breast) was > 100 µM, the TGI (CCRF-CEM leukemia) was > 100 µM and the TGI (CAKI-1 renal) was > 100 µM. For the same compound, the TGI (SW-620 colon) was > 100 µM, the TGI (SK-MEL-28 melanoma) was > 100 µM and the TGI (SK-MEL-2 melanoma) was > 100 µM. The TGI (HS 578T breast) was > 100 µM, the TGI (SK-MEL-5 melanoma) was > 100 µM and the TGI (MDA-MB-435) was > 100 µM. For the same compound, the TGI (OVCAR-8 ovarian) was > 100 µM, the TGI (SNB-19 CNS) was > 100 µM and the TGI (MALME-3M melanoma) was > 100 µM. For the same compound, the TGI (BT-549 breast) was > 100 µM, the TGI (MCF7 breast) was > 100 µM and the TGI (OVCAR-4 ovarian) was > 100 µM. The TGI (K-562 leukemia) was > 100 µM, the TGI (TK-10 renal) was > 100 µM and the TGI (OVCAR-5 ovarian) was > 100 µM. The TGI (HL-60(TB) leukemia) was > 100 µM, the TGI (A549 NSCLC) was > 100 µM and the TGI (T-47D breast) was > 100 µM. The TGI (786-0 renal) was > 100 µM, the TGI (SF-268 CNS) was > 100 µM and the TGI (SK-OV-3 ovarian) was > 100 µM. The TGI (MDA-N) was > 100 µM, the TGI (HT29 colon) was > 100 µM and the TGI (COLO 205 colon) was > 100 µM. The TGI (EKVX NSCLC) was > 100 µM, the TGI (SF-295 CNS) was > 100 µM and the TGI (NCI/ADR-RES ovarian) was > 100 µM. For the same compound, the TGI (NCI-H460 lung) was > 100 µM, the TGI (U251 CNS) was > 100 µM and the TGI (HOP-62 NSCLC) was > 100 µM. The TGI (NCI-H522 lung) was > 100 µM, the TGI (A498 renal) was > 100 µM and the TGI (UACC-257 melanoma) was > 100 µM. The TGI (LOX IMVI melanoma) was > 100 µM, the TGI (DU-145 prostate) was > 100 µM and the TGI (UACC-62 melanoma) was > 100 µM. The TGI (HOP-92 NSCLC) was > 100 µM, the TGI (HCC-2998 colon) was > 100 µM and the TGI (HCT-15 colon) was > 100 µM. For the same compound, the TGI (SN12C renal) was > 100 µM, the TGI (KM12 colon) was > 100 µM and the TGI (NCI-H23 lung) was > 100 µM. The TGI (RXF 393 renal) was > 100 µM.
With `O=C1C(Cl)=C(N(C(=O)c2ccccc2)C(=O)c2ccccc2)C(=O)c2ccccc21` the TGI (RPMI-8226 leukemia) was 8.87 µM, the TGI (IGROV1 ovarian) was > 100 µM and the TGI (PC-3 prostate) was > 100 µM. The TGI (UO-31 renal) was 15.7 µM, the TGI (NCI-H226 lung) was > 100 µM and the TGI (HCT-116 colon) was 17.6 µM. The TGI (MOLT-4 leukemia) was > 100 µM, the TGI (ACHN renal) was 13.9 µM and the TGI (M14 melanoma) was > 100 µM. The TGI (MDA-MB-231 breast) was > 100 µM, the TGI (CCRF-CEM leukemia) was 18.6 µM and the TGI (CAKI-1 renal) was 23.3 µM. It also gave a TGI (SW-620 colon) of 24.3 µM, a TGI (SK-MEL-28 melanoma) of 40.2 µM and a TGI (SK-MEL-2 melanoma) of 43.9 µM. For the same compound, the TGI (HS 578T breast) was 98 µM, the TGI (SK-MEL-5 melanoma) was 12.4 µM and the TGI (MDA-MB-435) was 32.4 µM. For the same compound, the TGI (OVCAR-8 ovarian) was > 100 µM, the TGI (SF-539 CNS) was 19.6 µM and the TGI (SNB-19 CNS) was > 100 µM. The TGI (BT-549 breast) was 21.7 µM, the TGI (MCF7 breast) was 24 µM and the TGI (K-562 leukemia) was 20.6 µM. The TGI (TK-10 renal) was 37.8 µM, the TGI (OVCAR-5 ovarian) was 34.3 µM and the TGI (HL-60(TB) leukemia) was 3.15 µM. The TGI (A549 NSCLC) was > 100 µM, the TGI (T-47D breast) was 32.3 µM and the TGI (786-0 renal) was 34.7 µM. For the same compound, the TGI (SF-268 CNS) was 21.7 µM, the TGI (SK-OV-3 ovarian) was > 100 µM and the TGI (MDA-N) was 25.8 µM. The TGI (HT29 colon) was 69.3 µM, the TGI (COLO 205 colon) was 31 µM and the TGI (EKVX NSCLC) was > 100 µM. For the same compound, the TGI (SF-295 CNS) was > 100 µM, the TGI (NCI/ADR-RES ovarian) was > 100 µM and the TGI (SR leukemia) was 81.2 µM. For the same compound, the TGI (NCI-H460 lung) was 28.5 µM, the TGI (U251 CNS) was > 100 µM and the TGI (HOP-62 NSCLC) was > 100 µM. The TGI (NCI-H522 lung) was 43.7 µM, the TGI (A498 renal) was > 100 µM and the TGI (UACC-257 melanoma) was 28.7 µM. For the same compound, the TGI (OVCAR-3 ovarian) was 22.9 µM, the TGI (LOX IMVI melanoma) was > 100 µM and the TGI (DU-145 prostate) was > 100 µM. For the same compound, the TGI (UACC-62 melanoma) was 19.8 µM, the TGI (HOP-92 NSCLC) was 34.8 µM and the TGI (SNB-75 CNS) was 24 µM. The TGI (HCC-2998 colon) was 37.4 µM, the TGI (HCT-15 colon) was 9 µM and the TGI (SN12C renal) was 61.3 µM. The TGI (KM12 colon) was 15.7 µM, the TGI (NCI-H23 lung) was 31.1 µM and the TGI (RXF 393 renal) was 15.8 µM.

From PubChem BioAssay (NCI)
